Results on three compounds are retold here after ChEMBL document CHEMBL1141364, “Design and synthesis of indane-ureido-thioisobutyric acids: A novel class of PPARalpha agonists” (Bioorg Med Chem Lett, 2007).

For data set [1], the target named is T1, Peroxisome proliferator-activated receptor delta (Homo sapiens, UniProt Q03181).
T1 sequence (Q03181 whole entry): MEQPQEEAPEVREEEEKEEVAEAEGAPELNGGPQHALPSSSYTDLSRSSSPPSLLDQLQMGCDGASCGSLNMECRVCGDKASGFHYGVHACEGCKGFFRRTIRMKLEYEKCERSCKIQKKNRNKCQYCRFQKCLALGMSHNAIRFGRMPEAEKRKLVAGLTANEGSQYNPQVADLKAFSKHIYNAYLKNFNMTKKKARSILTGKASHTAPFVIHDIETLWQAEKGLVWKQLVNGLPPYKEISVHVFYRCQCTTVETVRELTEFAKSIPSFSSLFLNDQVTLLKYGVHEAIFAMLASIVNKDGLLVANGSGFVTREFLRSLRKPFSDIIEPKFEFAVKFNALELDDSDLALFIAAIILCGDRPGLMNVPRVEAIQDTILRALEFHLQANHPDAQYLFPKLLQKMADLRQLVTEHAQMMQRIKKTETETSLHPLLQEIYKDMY
Kind of data set: Agonist activity at PPARdelta expressed in HEK293 cells by GAL4 transactivation assay. The class given is functional, cell-based.

The target in data set [2] is T2, Peroxisome proliferator-activated receptor gamma (Homo sapiens) (UniProt P37231).
T2 sequence (whole entry): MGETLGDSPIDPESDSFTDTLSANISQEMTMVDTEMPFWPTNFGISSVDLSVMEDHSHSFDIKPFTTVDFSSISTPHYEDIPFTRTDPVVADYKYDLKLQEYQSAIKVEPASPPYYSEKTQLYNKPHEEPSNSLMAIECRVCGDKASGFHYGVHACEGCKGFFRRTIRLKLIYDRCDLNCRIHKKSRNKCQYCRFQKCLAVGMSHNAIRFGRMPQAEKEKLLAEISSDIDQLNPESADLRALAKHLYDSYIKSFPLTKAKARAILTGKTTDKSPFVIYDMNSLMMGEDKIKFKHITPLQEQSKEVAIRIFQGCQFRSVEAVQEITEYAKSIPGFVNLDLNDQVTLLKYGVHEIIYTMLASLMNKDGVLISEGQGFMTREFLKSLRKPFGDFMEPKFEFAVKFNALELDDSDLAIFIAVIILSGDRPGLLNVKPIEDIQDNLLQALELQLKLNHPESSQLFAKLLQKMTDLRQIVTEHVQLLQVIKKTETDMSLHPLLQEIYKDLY
Kind of data set: Agonist activity at PPARgamma expressed in HEK293 cells assessed as aP2 gene induction relative to BRL-49653. The format is functional, cell-based.

Data set [3] concerns the target T3, Peroxisome proliferator-activated receptor alpha (Homo sapiens, UniProt Q07869).
T3 sequence (Q07869 whole entry): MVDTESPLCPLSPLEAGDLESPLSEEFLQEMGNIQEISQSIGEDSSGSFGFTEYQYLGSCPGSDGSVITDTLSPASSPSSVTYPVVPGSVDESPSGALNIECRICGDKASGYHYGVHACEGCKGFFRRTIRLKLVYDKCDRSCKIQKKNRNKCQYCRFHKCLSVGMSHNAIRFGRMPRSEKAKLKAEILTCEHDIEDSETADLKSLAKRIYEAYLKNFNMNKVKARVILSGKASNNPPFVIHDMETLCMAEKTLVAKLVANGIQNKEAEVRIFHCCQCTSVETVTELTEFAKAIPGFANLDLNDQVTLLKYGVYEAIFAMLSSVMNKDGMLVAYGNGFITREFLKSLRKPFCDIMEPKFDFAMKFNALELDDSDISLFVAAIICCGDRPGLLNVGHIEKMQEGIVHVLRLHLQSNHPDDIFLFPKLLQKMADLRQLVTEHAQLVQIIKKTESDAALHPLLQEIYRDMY
Kind of data set: Agonist activity at PPARalpha expressed in HEK293 cells by GAL4 transactivation assay. The format is functional, cell-based.

Data set [4] has as its system Mus musculus. Kind of data set: Reduction in glucose levels in db/db mouse plasma at 0.1 mg/kg, po after 11 days. Set-up: scale not given: the % may be the effect or the level left.
For data set [5], the target named is T4, Peroxisome proliferator-activated receptor gamma (Homo sapiens, UniProt P37231).
T4 sequence (P37231 whole entry): T2 sequence (whole entry)
Description: Agonist activity at PPARgamma expressed in HEK293 cells by GAL4 transactivation assay

For data set [6], the target named is T5, Peroxisome proliferator-activated receptor alpha (Rattus norvegicus, UniProt P37230).
T5 sequence (P37230 whole entry): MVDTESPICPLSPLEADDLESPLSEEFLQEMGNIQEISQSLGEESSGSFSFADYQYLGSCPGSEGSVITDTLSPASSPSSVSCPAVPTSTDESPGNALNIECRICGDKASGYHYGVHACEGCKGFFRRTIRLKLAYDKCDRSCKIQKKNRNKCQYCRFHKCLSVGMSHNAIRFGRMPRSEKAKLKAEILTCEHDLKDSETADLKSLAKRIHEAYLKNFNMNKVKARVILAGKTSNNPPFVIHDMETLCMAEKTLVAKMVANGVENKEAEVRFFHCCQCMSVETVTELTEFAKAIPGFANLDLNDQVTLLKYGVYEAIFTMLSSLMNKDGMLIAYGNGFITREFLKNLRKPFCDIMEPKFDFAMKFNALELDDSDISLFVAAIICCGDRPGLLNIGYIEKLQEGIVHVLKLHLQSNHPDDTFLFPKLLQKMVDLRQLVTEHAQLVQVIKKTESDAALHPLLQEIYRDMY
Kind of data set: Agonist activity at rat PPARalpha in rat H4IIE cells assessed as gene induction. The format is functional, cell-based.

In data set [7] the test system is Mus musculus. Kind of data set: Reduction in triglyceride levels in db/db mouse plasma at 0.1 mg/kg, po after 11 days. Set-up: scale not given: the % may be the effect or the level left.
In data set [8] the test system is Mus musculus. Kind of data set: Reduction in insulin levels in db/db mouse plasma at 0.1 mg/kg, po after 11 days. Set-up: scale not given: the % may be the effect or the level left.
Data set [9] has as its system Mus musculus. Kind of data set: Reduction in triglyceride levels in db/db mouse plasma at 1 mg/kg, po after 11 days. Set-up: scale not given: the % may be the effect or the level left.
A short description of data set [10]: Oral bioavailability in Sprague-Dawley rat at 30 mg/kg. The format is ADME, organism-based. Conditions: in vivo.
A short description of data set [11]: Metabolic stability in human liver microsomes at 5 uM. The class given is ADME, Microsome.
Data set [12] is described as follows: Total clearance in Sprague-Dawley rat at 3 mg/kg, iv or 30 mg/kg, po. The conditions noted are these: in vivo. The class given is ADME, organism-based.
The subject of data set [13] is Mus musculus. Kind of data set: Reduction in insulin levels in db/db mouse plasma at 1 mg/kg, po after 11 days. Set-up: scale not given: the % may be the effect or the level left.
A short description of data set [14]: Cmax in Sprague-Dawley rat at 3 mg/kg, iv or 30 mg/kg, po. The class given is ADME, organism-based. The conditions noted are these: in vivo.
Data set [15] concerns Mus musculus. Kind of data set: Reduction in body weight of db/db mouse at 1 mg/kg, po after 11 days. Details: scale not given: the % may be the effect or the level left.
For data set [16], the system named is Mus musculus. Kind of data set: Reduction in glucose levels in db/db mouse plasma at 1 mg/kg, po after 11 days. Details: scale not given: the % may be the effect or the level left.
A short description of data set [17]: Half life at terminal phase in Sprague-Dawley rat at 30 mg/kg, po. The format is ADME, organism-based. Details: dose 30 mg/kg, route oral. The conditions noted are these: in vivo, read-out: beta t1/2 (converted).
Data set [18] can be described thus: AUC in Sprague-Dawley rat at 3 mg/kg, iv or 30 mg/kg, po. The format is ADME, organism-based. Conditions: plasma.

Turning to `CCN(C(=O)Nc1ccc(OC(F)(F)F)cc1)[C@@H]1Cc2ccc(SC(C)(C)C(=O)O)cc2C1`, the EC50 was 2100 nM in [1], 170 nM in [3], more than 10 µM in data set [5] and 2 nM in [6]. Also, the Activity in [2] is 3.8%; in the data set on Mus musculus [4], 16%; in the data set with Mus musculus [7] it was 43%; in the data set on Mus musculus [8], 49%.

For the compound `CCN(C(=O)Nc1ccc(OC(F)(F)F)cc1)C1Cc2ccc(SC(C)(C)C(=O)O)cc2C1` (configuration not stated), the Activity with Mus musculus [9] stood at 56%; with Mus musculus [13], 53%; in the data set with Mus musculus [15], 59%; in the data set with Mus musculus [16] it was 60%. Also, in data set [10], the bioavailability amounted to 59%. The same compound displayed a half-life at 5 µM in data set [11] of 100 min. Also, the clearance in data set [12] is 0.1 mL/min/kg. In [6], the EC50 worked out at 33 nM. Besides, the concentration in [14] peaked (Cmax) at 39300 ng/mL. For the same compound, the half-life in data set [17] was 240 min. In data set [18], the AUC amounted to 290 µg·h/mL.

For `CCCCCCCN(CCc1ccc(SC(C)(C)C(=O)O)cc1)C(=O)Nc1ccc(F)cc1F` [GSK-9578], the EC50 came out at 150 nM in data set [1] and 166 nM in data set [6]. The Activity in data set [2] was 0.46%.
